Columns and labels:
[1] = test system: Escherichia coli; assay: drug sensitivity test of the pathogenic bacterium from blood culture; type: cell-based; conditions: isolate from blood specimen sampled before antibiotic treatment
Description: (§1) According to Step 1 to Step 4 of Example 1, a pathogenic bacterium rapid quantification test using sepsis patient's specimens (EDTA blood collection tube, 2 mL) was carried out. […] Blood was sampled before treatment with an antibiotic (pretreatment), and 24 hours (after 24 hrs.) and 72 hours (after 72 hrs.) after administration of the antibiotic. At the three points, a pathogenic bacterium rapid quantification test was carried out together with measurement of body temperature, white blood cell count, CRP, presepsin and IL-6. Furthermore, a blood specimen sampled before the antibiotic treatment was subjected to a blood culture method to identify a pathogenic bacterium and subjected to a drug sensitivity test. General information about individual cases is as follows.
According to Step 1 to Step 5 of Example 1, a pathogenic bacterium rapid identification/quantification test using sepsis patient's specimens (EDTA blood collection tube, 2 mL) was carried out. […] Blood was sampled before treatment with an antibiotic (pretreatment), and 24 hours (after 24 hrs.) and 72 hours (after 72 hrs.) after administration of the antibiotic. At the three points, a pathogenic bacterium rapid identification/quantification test was carried out together with measurement of body temperature, white blood cell count, CRP, presepsin and IL-6. […]

[2] = test system: Enterobacter aerogenes; assay: as above; type: cell-based; conditions: Case 7, isolate from blood specimen sampled before antibiotic treatment
Description: as §1, with “Step 5” for “Step 4”, “rapid identification/quantification” for “rapid quantification”

[3] = test system: Escherichia coli; assay: Case 3: pathogen count (nested PCR) and biomarkers in blood before/after antibiotic treatment; type: in vivo, human (sepsis patient); conditions: for CRP: pretreatment 1.1; for BT (body temperature): pretreatment 39.6; for WBC: pretreatment 168.3; for Presepsin: pretreatment 343; for IL-6: pretreatment 678; for Pathogen (Ave): pretreatment 3600
Description: (§2) First, bacterial cells were collected from a blood specimen by centrifuging the whole blood at a low rate of 100×g for 5 minutes to separate blood cells, centrifuging the resultant supernatant (containing buffy coat) at a high rate of 20,000×g for 10 minutes to obtain a pellet.
(§3) Using DNA of a pathogenic bacterium taken from the blood specimen according to the method of Step 1 as a template, nested PCR (1st PCR: 30 cycle→100 double dilution→2nd PCR: 30 to 35 cycles) is carried out. The bacterial cells in patient specimens vary in a wide range from very small to large number. Since it is difficult to accurately determine the bacterial number in a single cycle of PCR, nested PCR methods are used in combination.
(§4) Subsequently, using pathogenic bacterium DNA of Step 1 as a template, nested PCR was carried out together with a quantification control in the conditions described in Step 2. In the 1st PCR and 2nd PCR for quantification, the following bacterial universal primer (primer for detecting almost all bacteria) was used. The target region of the bacterial universal primer is a bacterial conserved region (base sequence region common in almost all bacteria) of a 16S ribosomal RNA gene. A predetermined bacterium is quantified by a bacterial species-specific primer; however, a pathogenic bacterium is not identified in the early stage of sepsis. Because of this, a bacterial species-specific primer cannot be used. Accordingly, unless a bacterial universal primer is used, an unidentified bacterium cannot be detected.
As mentioned above, E. coli DNA samples of three different concentrations and of a known bacterial number were used as quantification controls. Based on the data of three quantification controls different in concentration, a calibration curve was prepared. Based on bacterial DNA extracted from a patient specimen, the number of pathogenic bacterial cells was determined. Since the number of bacterial cells was obtained as an E. coli cell-number equivalent used as a quantification control, the number of bacterial cells in a specimen can be more easily, rapidly and accurately determined.
as §1
Case 3: • person, sepsis associated with urinary tract infection • blood culture/urine culture: Escherichia coli • antibiotics substance: tazobactam/piperacillin (sensitive)

[4] = test system: Escherichia coli; assay: Case 5: pathogen identification/quantification and biomarkers in blood before/after antibiotic treatment; type: in vivo, human (sepsis patient); conditions: for CRP: pretreatment 1.1; for BT (body temperature): pretreatment 39.6; for WBC: pretreatment 168.3; for Presepsin: pretreatment 343; for IL-6: pretreatment 678; for Pathogen (Ave): pretreatment 3600
Description: as §2, §3, §4
(§5) As mentioned above, E. coli DNA samples of three different concentrations and of a known bacterial number were used as quantification controls. Based on the data of three quantification controls different in concentration, a calibration curve was prepared. Based on bacterial DNA extracted from a patient specimen, the number of pathogenic bacterial cells was determined.
(§6) For the reason, it is necessary to make a correction based on the operon copy number per bacterium species in order to more accurately determine bacterial number. Since identification and qualification of a pathogenic bacterium are carried out concurrently in Step 3 and Step 4, the number of pathogenic bacterial cells can be corrected based on 16S ribosomal RNA operon copy number of the bacterium identified to computationally obtain the correct number of bacterial cells.
as §1, with “Step 5” for “Step 4”, “rapid identification/quantification” for “rapid quantification”

[5] = test system: Streptococcus dysgalactiae; assay: Case 6: pathogen identification/quantification and biomarkers in blood before/after antibiotic treatment; type: in vivo, human (sepsis patient); conditions: for BT (body temperature): pretreatment 39.7; for WBC: pretreatment 89.5; for IL-6: pretreatment 115; for CRP: pretreatment 136.1; for Presepsin: pretreatment 1373; for Pathogen (Ave): pretreatment 2651
Description: as §2, §3, §4, §5, §6
as §1, with “Step 5” for “Step 4”, “rapid identification/quantification” for “rapid quantification”

[6] = test system: Enterobacter aerogenes; assay: Case 7: pathogen identification/quantification and biomarkers in blood before/after antibiotic treatment; type: in vivo, human (sepsis patient); conditions: for BT (body temperature): pretreatment 38.8; for WBC: pretreatment 59.4; for CRP: pretreatment 72.3; for Presepsin: pretreatment 1322; for Pathogen (Ave): pretreatment 41083; for IL-6: pretreatment 238000
Description: as §2, §3, §4, §5, §6
as §1, with “Step 5” for “Step 4”, “rapid identification/quantification” for “rapid quantification”

Substance: tazobactam/piperacillin
- drug sensitivity [1]: sensitive
- drug sensitivity [2]: sensitive
- CRP ([3]; Case 3, 24 h after antibiotic): 9.3 mg/L
- BT (body temperature) ([3]; Case 3, 24 h after antibiotic): 36.6 °C
- WBC ([3]; Case 3, 24 h after antibiotic): 61.4 × 100/μL
- Presepsin ([3]; Case 3, 24 h after antibiotic): 267 ng/mL
- IL-6 ([3]; Case 3, 24 h after antibiotic): 5 pg/mL
- Pathogen (Ave) ([3]; Case 3, 24 h after antibiotic): 2102 cells/ml
- CRP ([3]; Case 3, 72 h after antibiotic): 2.9 mg/L
- BT (body temperature) ([3]; Case 3, 72 h after antibiotic): 37.2 °C
- WBC ([3]; Case 3, 72 h after antibiotic): 49.2 × 100/μL
- Presepsin ([3]; Case 3, 72 h after antibiotic): 501 ng/mL
- IL-6 ([3]; Case 3, 72 h after antibiotic): 6.3 pg/mL
- Pathogen (Ave) ([3]; Case 3, 72 h after antibiotic): 2 cells/ml
- CRP ([4]; Case 5, 24 h after antibiotic): 9.3 mg/L
- BT (body temperature) ([4]; Case 5, 24 h after antibiotic): 36.6 °C
- WBC ([4]; Case 5, 24 h after antibiotic): 61.4 × 100/μL
- Presepsin ([4]; Case 5, 24 h after antibiotic): 267 ng/mL
- IL-6 ([4]; Case 5, 24 h after antibiotic): 5 pg/mL
- Pathogen (Ave) ([4]; Case 5, 24 h after antibiotic): 2102 cells/ml
- CRP ([4]; Case 5, 72 h after antibiotic): 2.9 mg/L
- BT (body temperature) ([4]; Case 5, 72 h after antibiotic): 37.2 °C
- WBC ([4]; Case 5, 72 h after antibiotic): 49.2 × 100/μL
- Presepsin ([4]; Case 5, 72 h after antibiotic): 501 ng/mL
- IL-6 ([4]; Case 5, 72 h after antibiotic): 6.3 pg/mL
- Pathogen (Ave) ([4]; Case 5, 72 h after antibiotic): 2 cells/ml
- BT (body temperature) ([5]; Case 6, 24 h after antibiotic): 37.0 °C
- WBC ([5]; Case 6, 24 h after antibiotic): 77.3 × 100/μL
- IL-6 ([5]; Case 6, 24 h after antibiotic): 85.3 pg/mL
- CRP ([5]; Case 6, 24 h after antibiotic): 139.8 mg/L
- Presepsin ([5]; Case 6, 24 h after antibiotic): 854 ng/mL
- Pathogen (Ave) ([5]; Case 6, 24 h after antibiotic): 308 cells/ml
- BT (body temperature) ([5]; Case 6, 72 h after antibiotic): 37.2 °C
- WBC ([5]; Case 6, 72 h after antibiotic): 54.1 × 100/μL
- IL-6 ([5]; Case 6, 72 h after antibiotic): 59.4 pg/mL
- CRP ([5]; Case 6, 72 h after antibiotic): 43.2 mg/L
- Presepsin ([5]; Case 6, 72 h after antibiotic): 708 ng/mL
- Pathogen (Ave) ([5]; Case 6, 72 h after antibiotic): 20 cells/ml
- BT (body temperature) ([6]; Case 7, 24 h after antibiotic): 38.4 °C
- WBC ([6]; Case 7, 24 h after antibiotic): 258.5 × 100/μL
- CRP ([6]; Case 7, 24 h after antibiotic): 107 mg/L
- Presepsin ([6]; Case 7, 24 h after antibiotic): 1516 ng/mL
- Pathogen (Ave) ([6]; Case 7, 24 h after antibiotic): 19156 cells/ml
- IL-6 ([6]; Case 7, 24 h after antibiotic): 41700 pg/mL
- BT (body temperature) ([6]; Case 7, 72 h after antibiotic): 36.4 °C
- WBC ([6]; Case 7, 72 h after antibiotic): 198.2 × 100/μL
- CRP ([6]; Case 7, 72 h after antibiotic): 241.4 mg/L
- Presepsin ([6]; Case 7, 72 h after antibiotic): 2473 ng/mL
- Pathogen (Ave) ([6]; Case 7, 72 h after antibiotic): 59 cells/ml
- IL-6 ([6]; Case 7, 72 h after antibiotic): 176 pg/mL
